Data on five compounds can be found in ChEMBL document CHEMBL2385061, “Synthesis and carbonic anhydrase inhibitory properties of sulfamides structurally related to dopamine” (Bioorg Med Chem, 2013).

Test [1] deals with Carbonic anhydrase 5A, mitochondrial (Homo sapiens, UniProt P35218). The experiment in a line: Inhibition of human carbonic anhydrase-5A preincubated for 15 mins by stopped-flow CO2 hydration assay.
The next test addresses Carbonic anhydrase 9 (Homo sapiens, UniProt Q16790). The experiment in a line: Inhibition of human carbonic anhydrase-9 preincubated for 15 mins by stopped-flow CO2 hydration assay.

pKi: −log10 of the molar value. A value given as a limit tells only on which side of the number the result lay.

Chain of Carbonic anhydrase 5A, mitochondrial (P35218 whole entry): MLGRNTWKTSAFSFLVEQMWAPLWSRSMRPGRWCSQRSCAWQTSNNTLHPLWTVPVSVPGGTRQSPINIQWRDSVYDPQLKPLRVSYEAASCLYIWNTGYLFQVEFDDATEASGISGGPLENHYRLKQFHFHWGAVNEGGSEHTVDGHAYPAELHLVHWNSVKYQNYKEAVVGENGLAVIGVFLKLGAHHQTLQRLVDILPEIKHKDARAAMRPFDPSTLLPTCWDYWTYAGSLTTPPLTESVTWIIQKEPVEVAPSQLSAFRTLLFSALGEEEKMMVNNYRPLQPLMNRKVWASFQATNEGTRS

Turning to `COc1cc(CCNS(N)(=O)=O)cc(OC)c1OC`, the pKi (as a rule, the Ki on a negative log10 scale, so that one unit is a factor of ten) in test [1] was below 4.30; at Carbonic anhydrase 9 it was 6.66.

Regarding `COc1cccc(CCNS(N)(=O)=O)c1OC`, the pKi (in test [1]; at Carbonic anhydrase 9) was below 4.30 throughout.

In the case of `COc1ccc(CCNS(N)(=O)=O)cc1OC`, the pKi is 5.64 in test [1] and 7.04 at Carbonic anhydrase 9.

Turning to `COc1ccc(CCNS(N)(=O)=O)cc1`, the negative-log Ki (pKi) in test [1] was 5.49; at Carbonic anhydrase 9, 6.42.

On to `COc1ccccc1CCNS(N)(=O)=O`, for which the figures for the pKi (in test [1]; at Carbonic anhydrase 9) were 5.48 and 7.39, respectively.
